# Measurements: ChEMBL document CHEMBL1144365, “Benzodipyrazoles: a new class of potent CDK2 inhibitors” (Bioorg Med Chem Lett, 2005)
# Target: Cyclin-dependent kinase 2/cyclin A (Homo sapiens, UniProt P24941)
# Description: Inhibition of Cyclin A-cyclin-dependent kinase 2
row,IC50 [µM],SMILES
1,4.5,C=CCONC(=O)c1nn(-c2ccc(OC)cc2)c2c1CCc1[nH]ncc1-2
2,1.2,CCCCNS(=O)(=O)n1nc(C(=O)O)c2c1-c1c[nH]nc1CC2
3,0.03,CS(=O)(=O)c1ccc(-n2nc(C(N)=O)c3c2-c2cn[nH]c2CC3)cc1
4,0.087,CC(C)CC1Cc2c[nH]nc2-c2c[nH]nc21 (configuration not stated)
5,0.61,CCCCNS(=O)(=O)n1nc(C(=O)NC)c2ccc3[nH]ncc3c21
6,0.02,CNS(=O)(=O)c1ccc(-n2nc(C(N)=O)c3ccc4[nH]ncc4c32)cc1
7,> 10,COc1ccc(-n2nc(N)c3ccc4[nH]ncc4c32)cc1
8,0.51,NC(=O)c1nn(-c2ccc(OC(F)(F)F)cc2)c2c1CCc1[nH]ncc1-2
9,0.25,NC(=O)c1nn(-c2ccc(C3=NCC=N3)cc2)c2c1CCc1n[nH]cc1-2
10,0.075,NC(=O)c1nn(-c2ccc(C3=NCC=N3)cc2)c2c1ccc1[nH]ncc12
11,0.6,CCCCNS(=O)(=O)n1nc(C(=O)NC)c2c1-c1c[nH]nc1CC2
12,0.21,COc1ccc(-n2nc(C(=O)NN)c3ccc4[nH]ncc4c32)cc1
13,0.16,NC(=O)c1nn(-c2ccc(Cl)cc2)c2c1CCc1[nH]ncc1-2
14,1.15,NC(=O)c1nn(CCO)c2c1CCc1[nH]ncc1-2
15,0.04,CNS(=O)(=O)c1ccc(-n2nc(C(N)=O)c3c2-c2cn[nH]c2CC3)cc1
16,8.5,CCOC(=O)c1nn(-c2ccc(C)cc2)c2c1CCc1[nH]ncc1-2
17,1.75,COc1ccc(-n2nc(C#N)c3ccc4[nH]ncc4c32)cc1

row,IC50 [µM],SMILES
1,0.002,CCCCNS(=O)(=O)n1nc(C(N)=O)c2ccc3[nH]ncc3c21
2,2.1,COc1ccc(-n2nc(C(=O)NN)c3c2-c2cn[nH]c2CC3)cc1
3,8.1,CCOC(=O)c1nn(-c2ccc(OC)cc2)c2c1CCc1[nH]ncc1-2
4,0.19,N#Cc1ccc(-n2nc(C(N)=O)c3c2-c2cn[nH]c2CC3)cc1
5,2.1,COc1ccc(-n2nc(C(=O)O)c3c2-c2cn[nH]c2CC3)cc1
6,0.21,CCCCNS(=O)(=O)n1nc(C(N)=O)c2c1-c1c[nH]nc1CC2
7,0.2,C=CCONC(=O)c1nn(S(=O)(=O)NCCCC)c2c1ccc1[nH]ncc12
8,10,CCCCNS(=O)(=O)c1ccc(-n2nc(C(=O)OCC)c3c2-c2cn[nH]c2CC3)cc1
9,> 10,CN1CCN(S(=O)(=O)c2ccc(-n3nc(C(N)=O)c4c3-c3cn[nH]c3CC4)cc2)CC1
10,0.15,CN1CCN(S(=O)(=O)c2ccc(-n3nc(C(N)=O)c4ccc5[nH]ncc5c43)cc2)CC1
11,0.21,COc1ccc(-n2nc(C(=O)O)c3ccc4[nH]ncc4c32)cc1
12,2.85,C=CCONC(=O)c1nn(S(=O)(=O)NCCCC)c2c1CCc1n[nH]cc1-2
13,7.5,CCOC(=O)c1nn(-c2ccc(OC)cc2)c2c1ccc1[nH]ncc12
14,0.08,NC(=O)c1nn(-c2ccc(C(F)(F)F)cc2)c2c1CCc1[nH]ncc1-2
15,1.6,NC(=O)c1nn(-c2cccnc2)c2c1CCc1[nH]ncc1-2
16,0.9,CC(=O)c1nn(-c2ccc(C)cc2)c2c1CCc1[nH]ncc1-2
17,0.009,Cc1cccc(-n2nc(C(N)=O)c3ccc4[nH]ncc4c32)c1

# Target: not listed separately
# Assay: Inhibition of Glycogen synthase kinase-3 beta
row,IC50 [µM],SMILES
1,> 10,CC(C)CC1Cc2c[nH]nc2-c2c[nH]nc21 (configuration not stated)
2,0.46,Cc1ccc(-n2nc(C(N)=O)c3c2-c2c[nH]nc2CC3)cc1
3,0.023,Cc1ccc(-n2nc(C(N)=O)c3ccc4[nH]ncc4c32)cc1
